Measurements from US20080249028A1, “Thyrotropin-Releasing Hormone Analogs and Method of Use” (Roger Williams Hospital, priority 2005, published 2008).
Where a SMILES comes first, the peptide text is derived from it. [ ]: non-standard residue; d: D form. pGlu = O=C1CC[CH](C(=O)O)N1

Test system: STZ-induced hyperglycemic rats
Assay: Effect on STZ-induced hyperglycemia in rats (blood glucose level)
Type: in vivo, rat
Method: Male Sprague-Dawley rats (S.D. 180 g) were used in the experiments described below. The animals lived in individual metabolism cages with free access to food and water, while food and body weight were monitored daily. Peripheral blood samples (approximately 10 μl) were obtained from the tail vein of the animals. The blood glucose levels were measured by using Accu-Check Blood Glucose Meter (Roche Diagnosetics Corporation, IN). Beta cell function was evaluated once every two days over a 2-week period by an individual unaware of the treatment group. Animals were evaluated separately for blood glucose level, food intake and body weight. The endpoint check was pancreatic insulin content and pancreatic beta cell number.
Streptozotocin (STZ) was used to chemically induce damage in pancreatic function in order to create a hyperglycemic state in the animals. Eight-week old male Sprague-Dawley rats (200.00 g±10 g) were injected with STZ by intraperitoneal (i.p.) (65 mg/kg body weight (BW)) to create hyperglycemic animals (24 to 48 hours). Blood glucose levels were monitored daily. Onset of hyperglycemia occurred usually about 24 to 48 hours after STZ administration.
[…] the seventh day or on the third day after STZ administration, which allowed for examination of the TRH/TRH analog treatment and the degree of pancreatic damage in the diabetic animal. Again, food intake, body weight and blood glucose levels of each of the animals were monitored. When hyperglycemia was determined to be reversed by TRH/TRH analog, the animal was sacrificed. Blood samples were collected for insulin assay and the pancreas and muscles were collected for further pathological and physiological tests.
The figures shown in the tables are blood glucose levels (mg/dL; i.e., milligrams of glucose per deciliter of blood).

## CN(N=O)C(=O)N[C@@H]1[C@@H](O)[C@H](O)[C@@H](CO)O[C@@H]1O [S, streptozotocin, reference compound]
Table 1, rats, STZ alone, Day 1
  blood glucose level: 99.8 mg/dL
Table 1, rats, STZ alone, Day 2
  blood glucose level: 313.2 mg/dL
Table 1, rats, STZ alone, Day 4
  blood glucose level: 433.6 mg/dL
Table 1, rats, STZ alone, Day 9
  blood glucose level: 320 mg/dL
Table 1, rats, STZ alone, Day 15
  blood glucose level: 393.8 mg/dL
Table 1, rats, STZ alone, Day 22
  blood glucose level: 463.8 mg/dL
Table 1, rats, STZ alone, Day 29
  blood glucose level: 522.4 mg/dL
Table 1, rats, STZ alone, Day 39
  blood glucose level: 537.2 mg/dL
Table 1, rats, STZ alone, Day 43
  blood glucose level: 466.8 mg/dL
Table 1, rats, STZ alone, Day 50
  blood glucose level: 485 mg/dL
Table 1, rats, STZ alone, Day 53
  blood glucose level: 460 mg/dL
Table 1, rats, STZ alone, Day 56
  blood glucose level: 453 mg/dL
Table 1, rats, STZ alone, Day 60
  blood glucose level: 542 mg/dL
Table 1, rats, STZ alone, Day 64
  blood glucose level: 482 mg/dL
Table 2, rats, STZ alone, Day 1
  blood glucose level: 98 mg/dL
Table 2, rats, STZ alone, Day 4
  blood glucose level: 103 mg/dL
Table 2, rats, STZ alone, Day 7
  blood glucose level: 506 mg/dL
Table 2, rats, STZ alone, Day 11
  blood glucose level: 494 mg/dL
Table 2, rats, STZ alone, Day 15
  blood glucose level: 329 mg/dL
Table 2, rats, STZ alone, Day 18
  blood glucose level: 432 mg/dL
Table 2, rats, STZ alone, Day 21
  blood glucose level: 453 mg/dL
Table 2, rats, STZ alone, Day 25
  blood glucose level: 480 mg/dL
Table 2, rats, STZ alone, Day 28
  blood glucose level: 499 mg/dL
Table 2, rats, STZ alone, Day 32
  blood glucose level: 529 mg/dL
Table 2, rats, STZ alone, Day 35
  blood glucose level: 499 mg/dL
Table 2, rats, STZ alone, Day 39
  blood glucose level: 508 mg/dL
Table 2, rats, STZ alone, Day 42
  blood glucose level: 549 mg/dL
Table 2, rats, STZ alone, Day 46
  blood glucose level: 536 mg/dL
Table 2, rats, STZ alone, Day 54
  blood glucose level: 500 mg/dL
Table 2, rats, STZ alone, Day 61
  blood glucose level: 582 mg/dL
rats, STZ 65 mg/kg BW i.p.
  onset of hyperglycemia after STZ administration: 24 to 48 h

## NC(=O)C1CCCN1C(=O)C(Cc1ccccc1)NC(=O)C1CCC(=O)N1 (stereo not drawn) [PheT, 1-{3-phenyl-2-[(5-oxo-pyrrolidine-2-carbonyl)-amino]-propionyl}-pyrrolidine-2-carboxylic acid amide] ([pGlu]-Phe-Pro-NH2; configuration not given here)
Table 1, rats, STZ + compound i.p., Day 1
  blood glucose level: 105.8 mg/dL
Table 1, rats, STZ + compound i.p., Day 2
  blood glucose level: 316.8 mg/dL
Table 1, rats, STZ + compound i.p., Day 4
  blood glucose level: 419.8 mg/dL
Table 1, rats, STZ + compound i.p., Day 9
  blood glucose level: 130.8 mg/dL
Table 1, rats, STZ + compound i.p., Day 15
  blood glucose level: 234.4 mg/dL
Table 1, rats, STZ + compound i.p., Day 22
  blood glucose level: 359.2 mg/dL
Table 1, rats, STZ + compound i.p., Day 29
  blood glucose level: 407.2 mg/dL
Table 1, rats, STZ + compound i.p., Day 39
  blood glucose level: 434.8 mg/dL
Table 1, rats, STZ + compound i.p., Day 43
  blood glucose level: 432 mg/dL
Table 1, rats, STZ + compound i.p., Day 50
  blood glucose level: 478 mg/dL
Table 1, rats, STZ + compound i.p., Day 53
  blood glucose level: 424 mg/dL
Table 1, rats, STZ + compound i.p., Day 56
  blood glucose level: 355 mg/dL
Table 1, rats, STZ + compound i.p., Day 60
  blood glucose level: 381 mg/dL
Table 1, rats, STZ + compound i.p., Day 64
  blood glucose level: 414 mg/dL
